ChEMBL document CHEMBL4507282, “Data for DCP probe BI-1950” (2021)

Assays:
Details in all cases: Compound concentration 1000.0 nM
[1] = molecular target: Phosphatidylinositol 4-phosphate 3-kinase C2 domain-containing subunit beta (Homo sapiens) (UniProt O00750)
[2] = molecular target: Serine/threonine-protein kinase DCLK2 (Homo sapiens) (UniProt Q8N568)
[3] = molecular target: Ribosomal protein S6 kinase alpha-1 (Homo sapiens) (UniProt Q15418)
[4] = molecular target: Tyrosine-protein kinase Lck (Homo sapiens) (UniProt P06239)
[5] = molecular target: Wee1-like protein kinase 2 (Homo sapiens) (UniProt P0C1S8)
[6] = molecular target: Serine/threonine-protein kinase Chk2 (Homo sapiens) (UniProt O96017)
[7] = system: Mast/stem cell growth factor receptor Kit (Homo sapiens), P10721 [L576P]
[8] = molecular target: Serine/threonine-protein kinase 26 (Homo sapiens) (UniProt Q9P289)
[9] = molecular target: Ephrin type-A receptor 1 (Homo sapiens) (UniProt P21709)
[10] = molecular target: Calcium/calmodulin-dependent protein kinase type IV (Homo sapiens) (UniProt Q16566)
[11] = molecular target: Aurora kinase C (Homo sapiens) (UniProt Q9UQB9)
[12] = molecular target: Serine/threonine-protein kinase 16 (Homo sapiens) (UniProt O75716)
[13] = molecular target: Protein kinase C delta type (Homo sapiens) (UniProt Q05655)
[14] = molecular target: Ribosomal protein S6 kinase alpha-6 (Homo sapiens) (UniProt Q9UK32)
[15] = molecular target: Ankyrin repeat and protein kinase domain-containing protein 1 (Homo sapiens) (UniProt Q8NFD2)
[16] = molecular target: Protein kinase C iota type (Homo sapiens) (UniProt P41743)
[17] = molecular target: Fibroblast growth factor receptor 4 (Homo sapiens) (UniProt P22455)
[18] = molecular target: Mitogen-activated protein kinase kinase kinase kinase 4 (Homo sapiens) (UniProt O95819)
[19] = molecular target: Cyclin-dependent kinase 7 (Homo sapiens) (UniProt P50613)
[20] = molecular target: Receptor tyrosine-protein kinase erbB-2 (Homo sapiens) (UniProt P04626)
[21] = molecular target: Mitogen-activated protein kinase 8 (Homo sapiens) (UniProt P45983)
[22] = molecular target: Tyrosine-protein kinase CSK (Homo sapiens) (UniProt P41240)
[23] = molecular target: Casein kinase I isoform delta (Homo sapiens) (UniProt P48730)
[24] = molecular target: Cytoplasmic tyrosine-protein kinase BMX (Homo sapiens) (UniProt P51813)
[25] = molecular target: Mitogen-activated protein kinase kinase kinase 1 (Homo sapiens) (UniProt Q13233)
[26] = molecular target: Ribosomal protein S6 kinase alpha-4 (Homo sapiens) (UniProt O75676)
[27] = molecular target: Phosphatidylinositol 4-kinase beta (Homo sapiens) (UniProt Q9UBF8)
[28] = molecular target: Dual specificity mitogen-activated protein kinase kinase 1 (Homo sapiens) (UniProt Q02750)
[29] = molecular target: Citron Rho-interacting kinase (Homo sapiens) (UniProt O14578)
[30] = molecular target: Tyrosine-protein kinase Lyn (Homo sapiens) (UniProt P07948)
[31] = molecular target: Cyclin-dependent kinase 13 (Homo sapiens) (UniProt Q14004)
[32] = molecular target: Serine/threonine-protein kinase WNK3 (Homo sapiens) (UniProt Q9BYP7)
[33] = molecular target: 1-phosphatidylinositol 3-phosphate 5-kinase (Homo sapiens) (UniProt Q9Y2I7)
[34] = molecular target: Serine/threonine-protein kinase PAK 2 (Homo sapiens) (UniProt Q13177)
[35] = molecular target: Serine/threonine-protein kinase Nek4 (Homo sapiens) (UniProt P51957)
[36] = molecular target: Serine/threonine-protein kinase Nek9 (Homo sapiens) (UniProt Q8TD19)
[37] = molecular target: Serine/threonine-protein kinase tousled-like 2 (Homo sapiens) (UniProt Q86UE8)
[38] = molecular target: Interleukin-1 receptor-associated kinase 1 (Homo sapiens) (UniProt P51617)
[39] = molecular target: Platelet-derived growth factor receptor beta (Homo sapiens) (UniProt P09619)
[40] = molecular target: Mitogen-activated protein kinase kinase kinase kinase 1 (Homo sapiens) (UniProt Q92918)
[41] = molecular target: Receptor-interacting serine/threonine-protein kinase 2 (Homo sapiens) (UniProt O43353)
[42] = molecular target: Serine/threonine-protein kinase PRP4 homolog (Homo sapiens) (UniProt Q13523)
[43] = molecular target: Maternal embryonic leucine zipper kinase (Homo sapiens) (UniProt Q14680)
[44] = molecular target: LIM domain kinase 2 (Homo sapiens) (UniProt P53671)
[45] = molecular target: Casein kinase I isoform alpha-like (Homo sapiens) (UniProt Q8N752)
[46] = molecular target: Ephrin type-A receptor 6 (Homo sapiens) (UniProt Q9UF33)

Sequence of Cytoplasmic tyrosine-protein kinase BMX (Homo sapiens) (P51813 whole entry): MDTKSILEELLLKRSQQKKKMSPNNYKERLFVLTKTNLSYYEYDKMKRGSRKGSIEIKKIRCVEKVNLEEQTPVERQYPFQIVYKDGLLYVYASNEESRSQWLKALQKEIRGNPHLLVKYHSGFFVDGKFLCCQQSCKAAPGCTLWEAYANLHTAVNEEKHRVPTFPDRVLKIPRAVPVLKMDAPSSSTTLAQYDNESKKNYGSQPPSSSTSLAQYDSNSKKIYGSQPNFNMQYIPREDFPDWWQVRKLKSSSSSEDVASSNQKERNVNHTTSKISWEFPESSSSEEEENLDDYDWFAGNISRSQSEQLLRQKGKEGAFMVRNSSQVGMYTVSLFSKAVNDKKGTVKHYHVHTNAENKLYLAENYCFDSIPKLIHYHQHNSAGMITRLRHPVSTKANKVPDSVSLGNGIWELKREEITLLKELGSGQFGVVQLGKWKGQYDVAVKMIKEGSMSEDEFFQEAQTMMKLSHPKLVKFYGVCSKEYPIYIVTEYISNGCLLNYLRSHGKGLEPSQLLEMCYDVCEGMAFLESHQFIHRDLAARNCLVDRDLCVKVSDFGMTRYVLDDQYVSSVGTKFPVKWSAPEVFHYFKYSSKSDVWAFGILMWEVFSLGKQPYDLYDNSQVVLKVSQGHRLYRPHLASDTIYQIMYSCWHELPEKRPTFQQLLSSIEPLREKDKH
Sequence of Serine/threonine-protein kinase Nek9 (Homo sapiens) (Q8TD19 whole entry): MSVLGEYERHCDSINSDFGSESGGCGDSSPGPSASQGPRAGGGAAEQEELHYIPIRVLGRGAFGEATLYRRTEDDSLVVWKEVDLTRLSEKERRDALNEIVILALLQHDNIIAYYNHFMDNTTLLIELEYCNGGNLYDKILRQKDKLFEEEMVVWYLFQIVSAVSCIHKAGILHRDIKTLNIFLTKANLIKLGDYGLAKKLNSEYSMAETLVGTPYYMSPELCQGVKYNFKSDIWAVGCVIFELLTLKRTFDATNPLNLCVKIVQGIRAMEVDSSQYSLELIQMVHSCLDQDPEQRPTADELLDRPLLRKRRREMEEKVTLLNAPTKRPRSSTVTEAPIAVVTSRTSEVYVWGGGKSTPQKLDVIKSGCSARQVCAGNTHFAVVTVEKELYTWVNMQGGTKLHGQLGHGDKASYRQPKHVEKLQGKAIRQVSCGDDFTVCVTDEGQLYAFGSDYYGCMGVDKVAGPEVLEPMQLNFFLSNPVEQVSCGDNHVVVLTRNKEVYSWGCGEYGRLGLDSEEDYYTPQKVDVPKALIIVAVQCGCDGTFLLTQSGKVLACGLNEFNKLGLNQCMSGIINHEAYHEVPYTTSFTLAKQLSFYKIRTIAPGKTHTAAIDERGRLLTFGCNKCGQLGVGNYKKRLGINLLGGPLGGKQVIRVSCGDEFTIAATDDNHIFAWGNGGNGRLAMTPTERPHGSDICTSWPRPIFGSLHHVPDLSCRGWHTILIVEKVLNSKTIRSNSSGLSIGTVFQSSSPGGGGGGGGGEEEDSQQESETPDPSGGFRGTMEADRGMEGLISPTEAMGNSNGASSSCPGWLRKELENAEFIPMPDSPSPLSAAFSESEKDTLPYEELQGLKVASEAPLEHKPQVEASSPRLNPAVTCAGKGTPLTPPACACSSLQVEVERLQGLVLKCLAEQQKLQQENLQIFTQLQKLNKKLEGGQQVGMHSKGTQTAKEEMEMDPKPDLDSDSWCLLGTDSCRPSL
Sequence of Serine/threonine-protein kinase 26 (Homo sapiens) (Q9P289 2-416 limits assumed): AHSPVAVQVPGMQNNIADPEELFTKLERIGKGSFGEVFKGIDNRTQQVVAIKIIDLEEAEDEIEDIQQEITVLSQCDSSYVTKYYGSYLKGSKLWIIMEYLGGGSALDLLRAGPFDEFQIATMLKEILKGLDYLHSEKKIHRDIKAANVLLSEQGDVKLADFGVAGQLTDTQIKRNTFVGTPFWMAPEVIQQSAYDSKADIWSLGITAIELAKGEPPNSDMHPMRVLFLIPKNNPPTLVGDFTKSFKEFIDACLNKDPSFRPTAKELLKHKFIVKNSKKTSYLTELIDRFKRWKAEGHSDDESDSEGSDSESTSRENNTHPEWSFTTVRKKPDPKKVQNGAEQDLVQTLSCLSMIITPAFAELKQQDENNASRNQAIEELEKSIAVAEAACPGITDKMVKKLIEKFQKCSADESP
Sequence of Ribosomal protein S6 kinase alpha-4 (Homo sapiens) (O75676 whole entry, looked up): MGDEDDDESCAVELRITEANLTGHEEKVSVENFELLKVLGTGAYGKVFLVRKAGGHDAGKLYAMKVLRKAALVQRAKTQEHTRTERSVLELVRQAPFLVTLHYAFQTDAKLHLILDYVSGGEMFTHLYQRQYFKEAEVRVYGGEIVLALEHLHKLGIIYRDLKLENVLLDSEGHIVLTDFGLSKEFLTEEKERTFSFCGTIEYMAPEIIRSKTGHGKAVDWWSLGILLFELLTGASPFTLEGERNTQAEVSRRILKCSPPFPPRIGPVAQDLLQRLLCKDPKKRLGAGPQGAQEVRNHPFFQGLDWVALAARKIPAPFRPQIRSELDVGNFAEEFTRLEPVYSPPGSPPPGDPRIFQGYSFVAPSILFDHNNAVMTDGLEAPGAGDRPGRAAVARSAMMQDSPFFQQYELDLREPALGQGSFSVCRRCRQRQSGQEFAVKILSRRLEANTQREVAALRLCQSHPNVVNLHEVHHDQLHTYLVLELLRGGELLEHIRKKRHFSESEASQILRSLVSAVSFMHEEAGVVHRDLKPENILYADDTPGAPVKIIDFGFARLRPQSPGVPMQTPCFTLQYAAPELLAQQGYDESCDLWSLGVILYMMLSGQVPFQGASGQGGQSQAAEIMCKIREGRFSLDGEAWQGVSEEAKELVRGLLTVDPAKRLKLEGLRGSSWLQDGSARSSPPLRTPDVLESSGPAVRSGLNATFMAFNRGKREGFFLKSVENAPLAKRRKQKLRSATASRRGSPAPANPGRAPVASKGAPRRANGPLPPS
Sequence of Ephrin type-A receptor 1 (Homo sapiens) (P21709 whole entry): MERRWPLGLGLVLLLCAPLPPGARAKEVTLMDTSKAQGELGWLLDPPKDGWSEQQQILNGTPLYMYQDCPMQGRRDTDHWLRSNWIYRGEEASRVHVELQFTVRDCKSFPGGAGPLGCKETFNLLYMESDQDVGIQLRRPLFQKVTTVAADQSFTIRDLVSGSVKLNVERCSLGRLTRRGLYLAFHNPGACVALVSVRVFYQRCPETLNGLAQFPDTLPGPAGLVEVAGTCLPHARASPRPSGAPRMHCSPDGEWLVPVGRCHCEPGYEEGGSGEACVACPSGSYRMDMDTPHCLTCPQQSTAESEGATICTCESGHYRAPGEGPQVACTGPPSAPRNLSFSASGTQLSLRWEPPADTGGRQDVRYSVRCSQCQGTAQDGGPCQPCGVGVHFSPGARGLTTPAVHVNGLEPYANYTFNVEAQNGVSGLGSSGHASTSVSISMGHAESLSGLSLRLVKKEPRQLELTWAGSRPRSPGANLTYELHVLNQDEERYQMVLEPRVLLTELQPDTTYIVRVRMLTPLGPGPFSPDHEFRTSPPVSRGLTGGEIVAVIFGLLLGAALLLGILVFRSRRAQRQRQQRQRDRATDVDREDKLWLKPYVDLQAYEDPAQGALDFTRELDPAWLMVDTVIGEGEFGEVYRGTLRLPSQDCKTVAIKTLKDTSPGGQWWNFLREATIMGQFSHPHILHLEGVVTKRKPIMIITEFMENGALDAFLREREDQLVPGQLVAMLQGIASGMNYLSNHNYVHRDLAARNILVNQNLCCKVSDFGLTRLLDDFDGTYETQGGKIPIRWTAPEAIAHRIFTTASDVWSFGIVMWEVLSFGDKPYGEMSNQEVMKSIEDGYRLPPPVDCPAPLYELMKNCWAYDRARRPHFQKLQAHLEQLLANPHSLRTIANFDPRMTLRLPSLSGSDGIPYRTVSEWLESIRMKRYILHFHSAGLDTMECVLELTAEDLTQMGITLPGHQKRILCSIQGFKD
Sequence of Calcium/calmodulin-dependent protein kinase type IV (Homo sapiens) (Q16566 whole entry): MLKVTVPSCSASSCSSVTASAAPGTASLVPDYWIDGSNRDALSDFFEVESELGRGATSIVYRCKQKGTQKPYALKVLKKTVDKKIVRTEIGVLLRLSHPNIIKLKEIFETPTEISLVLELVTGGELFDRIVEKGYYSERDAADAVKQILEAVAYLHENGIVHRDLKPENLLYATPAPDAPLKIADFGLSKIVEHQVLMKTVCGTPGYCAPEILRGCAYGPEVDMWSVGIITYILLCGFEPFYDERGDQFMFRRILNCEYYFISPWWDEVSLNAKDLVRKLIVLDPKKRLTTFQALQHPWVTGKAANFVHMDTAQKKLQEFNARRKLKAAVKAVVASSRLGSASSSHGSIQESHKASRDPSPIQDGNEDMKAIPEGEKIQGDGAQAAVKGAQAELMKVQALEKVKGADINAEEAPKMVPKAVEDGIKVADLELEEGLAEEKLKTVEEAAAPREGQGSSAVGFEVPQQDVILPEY
Sequence of Serine/threonine-protein kinase tousled-like 2 (Homo sapiens) (Q86UE8 whole entry, looked up): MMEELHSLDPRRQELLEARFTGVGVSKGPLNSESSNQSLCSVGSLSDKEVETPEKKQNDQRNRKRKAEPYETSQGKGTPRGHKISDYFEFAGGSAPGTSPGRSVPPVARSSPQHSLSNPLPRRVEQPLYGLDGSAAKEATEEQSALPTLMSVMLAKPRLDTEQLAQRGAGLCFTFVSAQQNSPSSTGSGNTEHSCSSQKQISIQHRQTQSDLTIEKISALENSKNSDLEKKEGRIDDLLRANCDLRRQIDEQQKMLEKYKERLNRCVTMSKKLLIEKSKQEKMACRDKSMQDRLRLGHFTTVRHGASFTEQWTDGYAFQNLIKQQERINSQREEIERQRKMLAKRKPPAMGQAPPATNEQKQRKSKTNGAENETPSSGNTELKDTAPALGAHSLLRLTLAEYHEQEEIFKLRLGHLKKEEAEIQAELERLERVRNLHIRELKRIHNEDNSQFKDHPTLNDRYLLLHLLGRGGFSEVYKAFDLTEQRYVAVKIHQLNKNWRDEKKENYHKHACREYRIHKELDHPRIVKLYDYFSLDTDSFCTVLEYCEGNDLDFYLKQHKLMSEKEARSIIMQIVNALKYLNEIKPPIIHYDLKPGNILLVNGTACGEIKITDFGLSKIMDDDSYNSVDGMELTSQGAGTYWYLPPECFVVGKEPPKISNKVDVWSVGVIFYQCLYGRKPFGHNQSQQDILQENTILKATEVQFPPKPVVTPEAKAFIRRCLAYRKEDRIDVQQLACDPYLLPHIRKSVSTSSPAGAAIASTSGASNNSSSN

**Q.** For C[C@H](NC(=O)c1cnc2n1[C@](C)(Cc1ccc(C#N)cc1)C(=O)N2c1cc(Cl)c(F)c(Cl)c1)C(=O)NC1(c2ccccn2)CC1 [BI 1950], which residual activity [1] is on record?
**A.** The residual activity was 85%.

**Q.** And the residual activity [2]?
**A.** The residual activity was 100%.

**Q.** What about the residual activity [3] of the same compound?
**A.** Its residual activity is 100%.

**Q.** What about the residual activity [4] of the same compound?
**A.** The residual activity was 100%.

**Q.** What about the residual activity [5] of the same compound?
**A.** The residual activity was 100%.

**Q.** What about the residual activity [6] of the same compound?
**A.** The residual activity was 100%.

**Q.** What about the residual activity [7] of the same compound?
**A.** Its residual activity is 83%.

**Q.** And the residual activity [8]?
**A.** The residual activity was 98%.

**Q.** What about the residual activity [9] of the same compound?
**A.** The residual activity was 100%.

**Q.** What about the residual activity [10] of the same compound?
**A.** Its residual activity is 100%.

**Q.** And the residual activity [11]?
**A.** The residual activity was 100%.

**Q.** And the residual activity [12]?
**A.** Its residual activity is 100%.

**Q.** What about the residual activity [13] of the same compound?
**A.** The residual activity was 100%.

**Q.** What about the residual activity [14] of the same compound?
**A.** The residual activity was 100%.

**Q.** And the residual activity [15]?
**A.** The residual activity was 100%.

**Q.** And the residual activity [16]?
**A.** The residual activity was 100%.

**Q.** What about the residual activity [17] of the same compound?
**A.** The residual activity was 100%.

**Q.** And the residual activity [18]?
**A.** The residual activity was 100%.

**Q.** What about the residual activity [19] of the same compound?
**A.** Its residual activity is 94%.

**Q.** What about the residual activity [20] of the same compound?
**A.** Its residual activity is 100%.

**Q.** And the residual activity [21]?
**A.** The residual activity was 81%.

**Q.** What about the residual activity [22] of the same compound?
**A.** Its residual activity is 100%.

**Q.** And the residual activity [23]?
**A.** Its residual activity is 100%.

**Q.** What about the residual activity [24] of the same compound?
**A.** Its residual activity is 77%.

**Q.** And the residual activity [25]?
**A.** Its residual activity is 100%.

**Q.** And the residual activity [26]?
**A.** Its residual activity is 63%.

**Q.** What about the residual activity [27] of the same compound?
**A.** The residual activity was 100%.

**Q.** And the residual activity [28]?
**A.** The residual activity was 92%.

**Q.** What about the residual activity [29] of the same compound?
**A.** Its residual activity is 100%.

**Q.** And the residual activity [30]?
**A.** Its residual activity is 100%.

**Q.** What about the residual activity [31] of the same compound?
**A.** Its residual activity is 100%.

**Q.** And the residual activity [32]?
**A.** The residual activity was 78%.

**Q.** And the residual activity [33]?
**A.** Its residual activity is 100%.

**Q.** What about the residual activity [34] of the same compound?
**A.** Its residual activity is 92%.

**Q.** What about the residual activity [35] of the same compound?
**A.** The residual activity was 100%.

**Q.** What about the residual activity [36] of the same compound?
**A.** Its residual activity is 100%.

**Q.** And the residual activity [37]?
**A.** The residual activity was 59%.

**Q.** And the residual activity [38]?
**A.** Its residual activity is 100%.

**Q.** What about the residual activity [39] of the same compound?
**A.** Its residual activity is 91%.

**Q.** And the residual activity [40]?
**A.** Its residual activity is 100%.

**Q.** What about the residual activity [41] of the same compound?
**A.** The residual activity was 68%.

**Q.** What about the residual activity [42] of the same compound?
**A.** Its residual activity is 77%.

**Q.** What about the residual activity [43] of the same compound?
**A.** The residual activity was 86%.

**Q.** What about the residual activity [44] of the same compound?
**A.** Its residual activity is 100%.

**Q.** What about the residual activity [45] of the same compound?
**A.** Its residual activity is 100%.

**Q.** And the residual activity [46]?
**A.** The residual activity was 100%.

**Q.** C[C@@]1(Cc2ccc(C#N)cc2)C(=O)N(c2cc(Cl)cc(Cl)c2)c2ncc(C(=O)NC3(c4nc(C5CCC5)no4)CC3)n21 [BI 9446] was tested. Which residual activity [1] did it give?
**A.** The residual activity was 100%.

**Q.** And the residual activity [2]?
**A.** The residual activity was 100%.

**Q.** And the residual activity [3]?
**A.** The residual activity was 100%.

**Q.** And the residual activity [4]?
**A.** The residual activity was 100%.

**Q.** And the residual activity [5]?
**A.** Its residual activity is 100%.

**Q.** What about the residual activity [6] of the same compound?
**A.** The residual activity was 100%.

**Q.** And the residual activity [7]?
**A.** Its residual activity is 100%.

**Q.** What about the residual activity [8] of the same compound?
**A.** Its residual activity is 100%.

**Q.** And the residual activity [9]?
**A.** The residual activity was 100%.

**Q.** And the residual activity [10]?
**A.** The residual activity was 100%.

**Q.** And the residual activity [11]?
**A.** Its residual activity is 100%.

**Q.** What about the residual activity [12] of the same compound?
**A.** Its residual activity is 100%.

**Q.** What about the residual activity [13] of the same compound?
**A.** Its residual activity is 100%.

**Q.** What about the residual activity [14] of the same compound?
**A.** Its residual activity is 100%.

**Q.** What about the residual activity [15] of the same compound?
**A.** Its residual activity is 100%.

**Q.** What about the residual activity [16] of the same compound?
**A.** The residual activity was 87%.

**Q.** And the residual activity [17]?
**A.** The residual activity was 96%.

**Q.** What about the residual activity [18] of the same compound?
**A.** The residual activity was 91%.

**Q.** And the residual activity [19]?
**A.** The residual activity was 100%.

**Q.** And the residual activity [20]?
**A.** The residual activity was 100%.

**Q.** What about the residual activity [21] of the same compound?
**A.** Its residual activity is 100%.

**Q.** And the residual activity [22]?
**A.** Its residual activity is 98%.

**Q.** What about the residual activity [23] of the same compound?
**A.** Its residual activity is 100%.

**Q.** What about the residual activity [24] of the same compound?
**A.** Its residual activity is 40%.

**Q.** And the residual activity [25]?
**A.** The residual activity was 100%.

**Q.** What about the residual activity [26] of the same compound?
**A.** Its residual activity is 95%.

**Q.** What about the residual activity [27] of the same compound?
**A.** The residual activity was 100%.

**Q.** And the residual activity [28]?
**A.** The residual activity was 97%.

**Q.** And the residual activity [29]?
**A.** Its residual activity is 100%.

**Q.** What about the residual activity [30] of the same compound?
**A.** The residual activity was 95%.

**Q.** What about the residual activity [31] of the same compound?
**A.** The residual activity was 100%.

**Q.** And the residual activity [32]?
**A.** Its residual activity is 100%.

**Q.** What about the residual activity [33] of the same compound?
**A.** The residual activity was 100%.

**Q.** And the residual activity [34]?
**A.** Its residual activity is 64%.

**Q.** What about the residual activity [35] of the same compound?
**A.** The residual activity was 12%.

**Q.** What about the residual activity [36] of the same compound?
**A.** Its residual activity is 86%.

**Q.** What about the residual activity [37] of the same compound?
**A.** Its residual activity is 97%.

**Q.** And the residual activity [38]?
**A.** Its residual activity is 100%.

**Q.** What about the residual activity [39] of the same compound?
**A.** The residual activity was 100%.

**Q.** And the residual activity [40]?
**A.** The residual activity was 100%.

**Q.** What about the residual activity [41] of the same compound?
**A.** Its residual activity is 91%.

**Q.** What about the residual activity [42] of the same compound?
**A.** The residual activity was 91%.

**Q.** What about the residual activity [43] of the same compound?
**A.** Its residual activity is 89%.

**Q.** What about the residual activity [44] of the same compound?
**A.** The residual activity was 100%.

**Q.** What about the residual activity [45] of the same compound?
**A.** Its residual activity is 89%.

**Q.** What about the residual activity [46] of the same compound?
**A.** Its residual activity is 88%.
